Experimental data from PubChem BioAssay AID330 (DTP/NCI, 2004).
Several values for one entry are separate records, joined by “and”; a condition that tells them apart may be missing. Equal values may be shown once. Inconclusive results and toxic doses are left out. Rule for the calls: active = survival T/C of 150% or more; inactive = T/C below 125% in these data.

Test system: P388 leukemia ip, CD2F1 mice, survival T/C
Test: NCI In Vivo Anticancer Drug Screen. Data for tumor model P388 Leukemia (intraperitoneal) in CD2F1 (CDF1) mice
Conditions: endpoint: median survival time, higher = longer survival
In short: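 Mice carrying the transplanted tumor received test compound or vehicle. Survival was recorded in each group, and the value is the treated-group measurement divided by that of the vehicle-treated control group.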

[1] = dose: 60.0 mg/kg/injection, schedule: Q01DX005 (ip), vehicle: Klucel (hydroxypropylcellulose) (HPC)
[2] = dose: 120.0 mg/kg/injection, schedule: Q01DX005 (ip), vehicle: Klucel (hydroxypropylcellulose) (HPC)
[3] = dose: 240.0 mg/kg/injection, schedule: Q01DX005 (ip), vehicle: Klucel (hydroxypropylcellulose) (HPC)
[4] = dose: 100.0 mg/kg/injection, schedule: Q01DX009 (ip), vehicle: saline with Tween-80
[5] = dose: 100.0 mg/kg/injection, schedule: Q04DX003 (ip), vehicle: saline with Tween-80
[6] = dose: 60.0 mg/kg/injection, schedule: Q01DX005 (ip), vehicle: saline with Tween-80
[7] = dose: 120.0 mg/kg/injection, schedule: Q01DX005 (ip), vehicle: saline with Tween-80
[8] = dose: 240.0 mg/kg/injection, schedule: Q01DX005 (ip), vehicle: saline with Tween-80
[9] = dose: 50.0 mg/kg/injection, schedule: Q04DX003 (ip), vehicle: saline with Tween-80
[10] = dose: 60.0 mg/kg/injection, schedule: Q01DX005 (ip), vehicle: saline
[11] = dose: 120.0 mg/kg/injection, schedule: Q01DX005 (ip), vehicle: saline

Measured: T/C

CC(O)CNC(=O)Nc1ccccc1 (configuration not stated)
inactive: [1] 97 % of control | [2] 95 % of control | [3] 88 % of control

C=NN(C)C
inactive: dose: 2.39 mg/kg/injection, schedule: Q01DX009 (ip), vehicle: Klucel (hydroxypropylcellulose) (HPC) 95 % of control | dose: 4.75 mg/kg/injection, schedule: Q01DX009 (ip), vehicle: Klucel (hydroxypropylcellulose) (HPC) 102 % of control | dose: 9.5 mg/kg/injection, schedule: Q01DX009 (ip), vehicle: Klucel (hydroxypropylcellulose) (HPC) 103 % of control | dose: 19.0 mg/kg/injection, schedule: Q01DX009 (ip), vehicle: Klucel (hydroxypropylcellulose) (HPC) 105 % of control

NC1CONC1=O (configuration not stated)
inactive: [4] 109 % of control | [5] 100 % of control | dose: 200.0 mg/kg/injection, schedule: Q01DX009 (ip), vehicle: saline with Tween-80 100 % of control | dose: 200.0 mg/kg/injection, schedule: Q04DX003 (ip), vehicle: saline with Tween-80 109 % of control | dose: 400.0 mg/kg/injection, schedule: Q01DX009 (ip), vehicle: saline with Tween-80 100 % of control | dose: 400.0 mg/kg/injection, schedule: Q04DX003 (ip), vehicle: saline with Tween-80 109 % of control

CN1CCCC2Cc3ccccc3CC21 (configuration not stated)
inactive: dose: 6.25 mg/kg/injection, schedule: Q04DX002 (ip), vehicle: Klucel (hydroxypropylcellulose) (HPC) 97 % of control | dose: 12.5 mg/kg/injection, schedule: Q04DX002 (ip), vehicle: Klucel (hydroxypropylcellulose) (HPC) 102 % of control | dose: 25.0 mg/kg/injection, schedule: Q04DX002 (ip), vehicle: Klucel (hydroxypropylcellulose) (HPC) 104 % of control | dose: 100.0 mg/kg/injection, schedule: Q04DX002 (ip), vehicle: Klucel (hydroxypropylcellulose) (HPC) 101 % of control

CCC(/C=C/c1ccccc1)=N\NC(=O)c1ccc(Cl)cc1
inactive: [6] 101 % of control | [7] 96 % of control | [8] 105 % of control

N=C(N)c1ccc(OCCCCOc2ccc(N)cc2)cc1
inactive: [1] 97 % of control | [2] 101 % of control

COc1cc([N+](=O)[O-])c(S(=O)(=O)O)cc1N
inactive: [6] 99 % of control | [7] 94 % of control | [8] 93 % of control

CC1=CC[C@@H]2[C@@H](CC[C@@]2(C)O)C(C)(C)[C@H]1CC[C@@H]1[C@@]2(C)CCC(=O)C(C)(C)O[C@@H]2CC[C@]1(C)O
inactive: dose: 7.5 mg/kg/injection, schedule: Q01DX005 (ip), vehicle: saline + Tween-80 + alcohol 92 % of control | dose: 15.0 mg/kg/injection, schedule: Q01DX005 (ip), vehicle: saline + Tween-80 + alcohol 98 % of control | dose: 30.0 mg/kg/injection, schedule: Q01DX005 (ip), vehicle: saline + Tween-80 + alcohol 97 % of control | dose: 60.0 mg/kg/injection, schedule: Q01DX005 (ip), vehicle: saline + Tween-80 + alcohol 103 % of control

Nc1[nH]c(=O)ncc1-c1cccc(Cl)c1
inactive: dose: 15.0 mg/kg/injection, schedule: Q01DX005 (ip), vehicle: saline with Tween-80 103 % of control | dose: 30.0 mg/kg/injection, schedule: Q01DX005 (ip), vehicle: saline with Tween-80 104 % of control | [6] 106 % of control and 96 % of control

CC(C)COC1CCc2ncccc2O1 (configuration not stated)
inactive: dose: 50.0 mg/kg/injection, schedule: Q01DX009 (ip), vehicle: saline 104 % of control | dose: 100.0 mg/kg/injection, schedule: Q01DX009 (ip), vehicle: saline 104 % of control | dose: 200.0 mg/kg/injection, schedule: Q01DX009 (ip), vehicle: saline 103 % of control

C[c-]1[c-][c-][c-][c-]1.[C-]#[O+].[C-]#[O+].[C-]#[O+].[Mn]
inactive: dose: 12.5 mg/kg/injection, schedule: Q01DX005 (ip), vehicle: Klucel (hydroxypropylcellulose) (HPC) 94 % of control | dose: 25.0 mg/kg/injection, schedule: Q01DX005 (ip), vehicle: Klucel (hydroxypropylcellulose) (HPC) 95 % of control | dose: 50.0 mg/kg/injection, schedule: Q01DX005 (ip), vehicle: Klucel (hydroxypropylcellulose) (HPC) 99 % of control | dose: 100.0 mg/kg/injection, schedule: Q01DX005 (ip), vehicle: Klucel (hydroxypropylcellulose) (HPC) 99 % of control

N#C[S-].N#C[S-].[Au+3].[Au+3].[CH3-].[CH3-].[CH3-].[CH3-]
inactive: [9] 100 % of control | [5] 120 % of control

Cc1ccccc1-[n+]1nc(-c2ccccc2)nn1-c1ccccc1
inactive: dose: 0.31 mg/kg/injection, schedule: Q01DX009 (ip), vehicle: saline with Tween-80 95 % of control | dose: 0.63 mg/kg/injection, schedule: Q01DX009 (ip), vehicle: saline with Tween-80 104 % of control | dose: 1.25 mg/kg/injection, schedule: Q01DX009 (ip), vehicle: saline with Tween-80 95 % of control

O=C1CCC(C(=O)N(C(=O)NC2CCCCC2)C2CCCCC2)Cc2ccccc21 (configuration not stated)
inactive: [1] 98 % of control | [2] 92 % of control | [3] 90 % of control

C/C(=C\c1cc(Cl)ccc1OCC(=O)O)[N+](=O)[O-]
inactive: dose: 50.0 mg/kg/injection, schedule: Q01DX001 (ip), vehicle: saline with Tween-80 108 % of control and 116 % of control | dose: 100.0 mg/kg/injection, schedule: Q01DX001 (ip), vehicle: saline with Tween-80 121 % of control and 96 % of control | dose: 200.0 mg/kg/injection, schedule: Q01DX001 (ip), vehicle: saline with Tween-80 121 % of control | dose: 400.0 mg/kg/injection, schedule: Q01DX001 (ip), vehicle: saline with Tween-80 115 % of control

O=C1NCNC(=O)N1
inactive: dose: 12.5 mg/kg/injection, schedule: Q04DX003 (ip), vehicle: saline with Tween-80 100 % of control | dose: 25.0 mg/kg/injection, schedule: Q04DX003 (ip), vehicle: saline with Tween-80 98 % of control | [9] 101 % of control | [5] 98 % of control

NC(N)=NC(N)=Nc1ccc(-c2ccc(N=C(N)N=C(N)N)cc2)cc1
inactive: dose: 3.13 mg/kg/injection, schedule: Q01DX009 (ip), vehicle: saline with Tween-80 108 % of control | dose: 6.25 mg/kg/injection, schedule: Q01DX009 (ip), vehicle: saline with Tween-80 106 % of control

Cc1ncc(CO)c(CO)c1OCC(O)CN1CCN(C(=O)c2ccccc2)CC1 (configuration not stated)
inactive: [10] 101 % of control | [11] 104 % of control

COC(=O)C(OC)(OC)C(O)c1ccccc1 (configuration not stated)
inactive: [10] 100 % of control | [11] 106 % of control | dose: 240.0 mg/kg/injection, schedule: Q01DX005 (ip), vehicle: saline 113 % of control

CCSc1nnc(C2CCC(=O)N2Cc2ccccc2)o1 (configuration not stated)
inactive: [6] 94 % of control | [7] 100 % of control | [8] 100 % of control

CCOC(=O)c1ccc(NC(=O)Nc2scc[n+]2C)cc1
inactive: dose: 12.5 mg/kg/injection, schedule: Q01DX009 (ip), vehicle: distilled water + Tween-80 93 % of control | dose: 25.0 mg/kg/injection, schedule: Q01DX009 (ip), vehicle: distilled water + Tween-80 102 % of control | dose: 50.0 mg/kg/injection, schedule: Q01DX009 (ip), vehicle: distilled water + Tween-80 108 % of control | dose: 100.0 mg/kg/injection, schedule: Q01DX009 (ip), vehicle: distilled water + Tween-80 100 % of control | dose: 200.0 mg/kg/injection, schedule: Q01DX009 (ip), vehicle: distilled water + Tween-80 90 % of control

CN1CCc2cc(O)c(O)cc2C1Cc1ccc(O)c(O)c1 (configuration not stated)
inactive: dose: 50.0 mg/kg/injection, schedule: Q01DX009 (ip), vehicle: saline with Tween-80 100 % of control | [4] 96 % of control
